{"source": "patent US20090017489A1", "about": "“Methods For Modulating The Development Of Dopamine Neuron By The Dopamine D2 Receptor And Compositions Thereof” (Korea University Industry And Academy Cooperation Foundation, priority 2006, published 2009)", "key": {"[1]": {"test_system": "D2R-mediated Nurr1 activation", "assay": "NurRE-dependent luciferase reporter gene activation assay in HEK293T cells transfected with D2R, Nurr1 and NurRE-luc", "assay_type": "cell-based", "protocol": "To investigate the effect of D2R on the number of TH-positive neurons and Nurr1 expression, Nur response element (NurRE)-dependent reporter gene activation assay was carried out to determine whether or not D2R activation might induce Nurr1 activation (Philips et al, Mol Cell Biol., 1997, 17:5946-5951; Maira et al, Mol Cell Biol., 1999, 19:7549-7557). HEK293T cells distributed from Korean cell line Bank were cultured in DMEM (Dulbeco's modified eagle's medium; Invitrogen, Carlsbad, Calif.) supplemented with 10% FBS (fetal bovine serum; Invitrogen, Carlsbad, Calif.) and transfected the same with dopamine receptors, Nurr1, and NurRE gene using a jetPEI transfection reagent (Qbiogene, Carlsbad, Calif.). In detail, 5˜7×10^5 cells confluent monolayers of HEK293 cells were transfected with 1.5 μg of pSV-D2R or pSV-D1R, 1.5 μg of pCMX-Nurr1, 1.5 μg of pXP1-luc containing POMC gene promoter and NurRE (pXP1-NurRE-luc), and 0.5 μg of pCH110. In case of the transfection with Ras dominant-negative mutant, cells were transfected with 1.0 μg of pMT-RasN17 or pSK-null vector, 1.0 μg of pSV-D2R, 1.0 μg of pCMX-Nurr1, 1.0 μg of pXP1-NurRE-luc, and 0.5 μg of pCH110. After 3 hours, the transfection mixture was replaced with fresh growth medium. Assays were performed 48 hours after transfection. Cells were preincubated overnight in serum-free growth medium before treatment with agonists. The cells were treated with various concentrations of dopamine or SKF38393, respectively, for 6 hours at 37° C. with or without preincubation of haloperidol (1 μM for 5 minutes), pertussis toxin (PTX) (100 ng/ml for 12 hours), H-89 (1 μM for 20 minutes), and PD98059 (10 μM for 30 minutes). After treatment, the cells were lysed and assayed for luciferase activity using the luciferase assay system (Promega, Madison, Wis.), and luminescence was measured using a 96-well luminometer (Microlumat; EG & Berthold, Bad Wilbad, Germany).\nThe data obtained were fitted to a sigmoid curve with a variable slope factor using nonlinear squares regression in GraphPad Prism software, which is shown in FIG. 5."}, "[2]": {"test_system": "TH-positive neurons in primary mesencephalic cultures from WT and D2R−/− mice", "assay": "MPP+ treatment of primary mesencephalic dopaminergic neuronal cultures, TH-positive cell counting", "assay_type": "cell-based, mouse", "conditions": "for number of surviving TH-positive neurons: 10 μM MPP+, 24 hours", "source_text": "(§1) D2R−/− mice and wild-type (WT) mice were obtained by mating D2R−/− mice and heterozygous mice, purchased from Institut de Genetiqul et Biologie Moleculaire et celluaire (Strasbourg, France), and their genotypes were identified by Southern hybridization analyses (An J J et al., Mol Cell Neurosci. 2004, 25: 732-741). Insemination was confirmed by vaginal plug and considered to be embryonic day 0 (E0). Pregnant mothers were killed at E14 in accordance with Society for Neuroscience Guidelines. To prepare primary mesencephalic neuronal cultures, the mesencephalon dissected from 14 day gestation mouse embryo was incubated with 0.1% of trypsin in HBSS for 10 minutes at 37° C. and triturated with a constricted Pasteur pipette in high-glucose DMEM media supplemented with 10% FBS (Invitrogen, San Diego, Calif.), 1.4 mM L-glutamine, and 6.0 g/L glucose. The neurons were plated at 1.0×10^5 cells per 18×18 mm coverslip (Marienfeld, Lauda-Konigshofen, Germany) or 2.0×10^5 cells per six-well plates precoated with 50 μg/ml poly-D-lysine and 2 μg/ml laminin (Sigma, St. Louis, Mo.). The neurons were maintained at 37° C. in a humidified 5% CO2 atmosphere in Neurobasal media supplemented with B27 and GlutaMax-1.\nTo determine whether the absence of dopamine D2 receptor (D2R) might affect the number of dopaminergic neurons, dopaminergic neurons, which were isolated from mesencephalons of wild-type (WT) and D2R−/− embryonic mice, were incubated on slides with 1.0×10^5 cells and precoated with 50 μg/ml poly-D-lysine and 2 μg/ml laminin (Sigma, St. Louis, Mo.) at 37° C. for 5 days, followed by performing immunofluorescence staining. […] Using a microscope equipped with an metamorph imaging system (Universal Imaging Corporation, West Chester, Pa.) in 20 randomly selected fields per each slide, cell counts and morphometric analysis were made in randomly selected unbiased counting frames (>40 frames out of 81 grids were counted). […]"}, "[3]": {"test_system": "phosphorylated ERK (p-ERK) in mesencephalic neurons from WT and D2R−/− mice", "assay": "ERK phosphorylation in mesencephalic neurons (immunofluorescence and Western blot)", "assay_type": "cell-based, mouse", "conditions": "Western blot", "experimental": "Then, cells were fixed in the same manner as in EXAMPLE 2, a rabbit polyclonal anti-TH (1:1000; Pel-Freez) and a mouse monoclonal anti-phosphorylated ERK (p-ERK) (E10; 1:200; Cell Signaling, Beverly, Mass.) were reacted at 4° C. for 12 hours. Thereafter, the resultant neurons were stained at RT for 1 hour with two fluorescent antibodies, that is, Alexa Fluor 568 goat anti-rabbit IgG and Alexa Fluor 488 goat anti-mouse IgG (1:200; Molecular Probes, Eugene, Oreg.). After staining, ERK-positive neurons among TH-positive neurons were examined.\nTo observe immunofluorescent images, a confocal microscope system (Nikon Eclipse fluorescence microscope, TE2000-U, Nikon, Kanagawa, Japan; Ultraview RS confocal scanner, Perkin elmer, Wellesley, Mass.) or a fluorescence microscope (Axiovert 2000 microscope with epifluorescence unit, Zeiss, Zena, Germany) was used. The Western blot analysis was carried out in the following conditions. […] The resultant mixture was homogenized with probe type sonicator on ice, and followed by centrifugation at 13,000×g for 10 minutes at 4° C. Protein (50 μg), as measured by Bradford protein assay, was subjected to electrophoresis on 10% SDS-PAGE. […]"}, "[4]": {"test_system": "TH-positive dopaminergic neurons in mesencephalic cultures from WT and D2R−/− mice", "assay": "Number of TH-positive neurons and neurite length in primary mesencephalic cultures", "assay_type": "cell-based, mouse", "source_text": "as §1\nTo determine whether the absence of dopamine D2 receptor (D2R) might affect the number of dopaminergic neurons, dopaminergic neurons, which were isolated from mesencephalons of wild-type (WT) and D2R−/− embryonic mice, were incubated on slides with 1.0×10^5 cells and precoated with 50 μg/ml poly-D-lysine and 2 μg/ml laminin (Sigma, St. Louis, Mo.) at 37° C. for 5 days, followed by performing immunofluorescence staining. The immunofluorescence staining was performed such that primarily cultured dopaminergic neurons were fixed with 4% paraformaldehyde for 20 minutes at room temperature (RT) and blocked for 1 hour in PBS containing 5% normal horse serum and 0.2% Triton X-100. Then, the neurons were incubated with a rabbit polyclonal anti-tyrosine hydroxylase (TH) (1:1000; Pel-Freez, Rogers, Ark.) in PBS containing 1% normal horse serum and 0.2% Triton X-100 at 4° C. for over 16 hours, and followed by staining according to avidin-biotin immunohistochemical procedures (Vector Laboratories, Burlingame, Calif.). Using a microscope equipped with an metamorph imaging system (Universal Imaging Corporation, West Chester, Pa.) in 20 randomly selected fields per each slide, cell counts and morphometric analysis were made in randomly selected unbiased counting frames (>40 frames out of 81 grids were counted).\nThereafter, the treated cells were fixed and stained in the same manner as in EXAMPLE 2 for counting the number TH-positive cells and analyzing the neuritic shape (FIG. 6A).\nThereafter, the neurons were treated with 1 μM quinpirol."}, "[5]": {"test_system": "dopamine D1 receptor (D1R)-mediated Nurr1 activation", "assay": "NurRE-dependent luciferase reporter gene activation assay in HEK293T cells transfected with D1R", "assay_type": "cell-based", "protocol": "To investigate the effect of D2R on the number of TH-positive neurons and Nurr1 expression, Nur response element (NurRE)-dependent reporter gene activation assay was carried out to determine whether or not D2R activation might induce Nurr1 activation (Philips et al, Mol Cell Biol., 1997, 17:5946-5951; Maira et al, Mol Cell Biol., 1999, 19:7549-7557). HEK293T cells distributed from Korean cell line Bank were cultured in DMEM (Dulbeco's modified eagle's medium; Invitrogen, Carlsbad, Calif.) supplemented with 10% FBS (fetal bovine serum; Invitrogen, Carlsbad, Calif.) and transfected the same with dopamine receptors, Nurr1, and NurRE gene using a jetPEI transfection reagent (Qbiogene, Carlsbad, Calif.). In detail, 5˜7×10^5 cells confluent monolayers of HEK293 cells were transfected with 1.5 μg of pSV-D2R or pSV-D1R, 1.5 μg of pCMX-Nurr1, 1.5 μg of pXP1-luc containing POMC gene promoter and NurRE (pXP1-NurRE-luc), and 0.5 μg of pCH110. […] After treatment, the cells were lysed and assayed for luciferase activity using the luciferase assay system (Promega, Madison, Wis.), and luminescence was measured using a 96-well luminometer (Microlumat; EG & Berthold, Bad Wilbad, Germany)."}, "[6]": {"conditions": "PD98059 treatment versus control without PD98059"}, "[7]": {"conditions": "D2R−/− mice, 1 μM haloperidol for 5 minutes then 1 μM quinpirole, versus control without haloperidol"}, "[8]": {"conditions": "WT and D2R−/− mice treated with haloperidol"}}, "note": "“Also recorded” adds a separate entry of the source."}
{"molecule": "O=S(=O)(NCCNC/C=C/c1ccc(Br)cc1)c1cccc2cnccc12", "note": "[H-89]", "values": [{"measurement": "D2R-induced NurRE-dependent luciferase activation in the presence of PKA inhibitor", "setting": "[1]; H-89 1 μM for 20 minutes", "value": "did not give rise to a significant change"}]}
{"molecule": "C[n+]1ccc(-c2ccccc2)cc1", "note": "[MPP^+, 1-Methyl-4-phenylpyridinium]", "values": [{"measurement": "loss of dopaminergic neurons", "setting": "[2]; 1 to 10 μM MPP+ for 24 hours, D2R−/− versus WT cultures", "value": "more significant loss of dopaminergic neurons in the D2R−/− mice than in WT mice"}, {"measurement": "number of surviving TH-positive neurons", "setting": "[2]; D2R−/− mice cultures", "value": 40, "unit": "%"}, {"measurement": "number of surviving TH-positive neurons", "setting": "[2]; WT mice cultures", "value": 54, "unit": "%"}]}
{"molecule": "COc1cccc(-c2cc(=O)c3ccccc3o2)c1N", "note": "[PD98059]", "values": [{"measurement": "phosphorylated ERK after quinpirole with MEK inhibitor", "setting": "[3]; 50 μM PD98059 for 30 minutes plus quinpirole", "value": "neither WT nor D2R−/− neurons showed phosphorylated ERK"}, {"measurement": "average length of neurites", "setting": "[4]; [6]", "value": "reduced"}, {"measurement": "number of TH-positive neurons", "setting": "[4]; [6]", "value": "slightly reduced"}, {"measurement": "Nurr1 activation by dopamine in the presence of MEK inhibitor", "setting": "[1]; PD98059 10 μM for 30 minutes", "value": "noticeably reduced"}]}
{"molecule": "Oc1cc2c(c(Cl)c1O)CCNCC2c1ccccc1", "note": "(centres unmarked) [SKF81297]", "values": [{"measurement": "Nurr1 activation by D1R-specific agonist", "setting": "[5]", "value": "no significant change"}]}
{"molecule": "NCCc1ccc(O)c(O)c1", "note": "[dopamine]", "values": [{"measurement": "luciferase activation relative to control group", "setting": "[1]; HEK293T transfected with D2R, Nurr1 and NurRE-luc, dopamine at various concentrations, 6 hours", "value": "about 180%"}, {"measurement": "change in luciferase activation", "setting": "[1]; dopamine, in the absence of Nurr1 or D2R", "value": "no change in the activation"}]}
{"molecule": "O=C(CCCN1CCC(O)(c2ccc(Cl)cc2)CC1)c1ccc(F)cc1", "note": "[haloperidol]", "values": [{"measurement": "phosphorylated ERK after quinpirole with antagonist", "setting": "[3]; 1 μM haloperidol for 5 minutes plus quinpirole", "value": "neither WT nor D2R−/− neurons showed phosphorylated ERK"}, {"measurement": "neuritic extension", "setting": "[4]; [7]", "value": "no changes"}, {"measurement": "number of TH-positive neurons", "setting": "[4]; [7]", "value": "no changes"}, {"measurement": "average length of the neurites", "setting": "[4]; [8]", "value": "decreased or showed insignificant changes"}, {"measurement": "number of dopaminergic neurons", "setting": "[4]; [8]", "value": "decreased or showed insignificant changes"}, {"measurement": "D2R-mediated Nurr1 activation by dopamine after antagonist", "setting": "[1]; haloperidol 1 μM preincubation for 5 minutes", "value": "reduced; also recorded: inhibited or decreased"}]}
